Assay results from patent US11318137B2, “Quinazoline compounds as modulators of Ras signaling” (VANDERBILT UNIVERSITY, priority 2017, dated 2022).

Columns and labels:
[1] = molecular target: T1, SOS-mediated nucleotide exchange on Ras (Homo sapiens, UniProt Q07889); assay: SOS-mediated nucleotide exchange on Ras (BODIPY-GDP fluorescence); assay type: biochemical; conditions: Ras loaded with BODIPY-GDP, GTP and SOS added; EC50 from derived exchange rates
T1 sequence (Q07889 1-1333): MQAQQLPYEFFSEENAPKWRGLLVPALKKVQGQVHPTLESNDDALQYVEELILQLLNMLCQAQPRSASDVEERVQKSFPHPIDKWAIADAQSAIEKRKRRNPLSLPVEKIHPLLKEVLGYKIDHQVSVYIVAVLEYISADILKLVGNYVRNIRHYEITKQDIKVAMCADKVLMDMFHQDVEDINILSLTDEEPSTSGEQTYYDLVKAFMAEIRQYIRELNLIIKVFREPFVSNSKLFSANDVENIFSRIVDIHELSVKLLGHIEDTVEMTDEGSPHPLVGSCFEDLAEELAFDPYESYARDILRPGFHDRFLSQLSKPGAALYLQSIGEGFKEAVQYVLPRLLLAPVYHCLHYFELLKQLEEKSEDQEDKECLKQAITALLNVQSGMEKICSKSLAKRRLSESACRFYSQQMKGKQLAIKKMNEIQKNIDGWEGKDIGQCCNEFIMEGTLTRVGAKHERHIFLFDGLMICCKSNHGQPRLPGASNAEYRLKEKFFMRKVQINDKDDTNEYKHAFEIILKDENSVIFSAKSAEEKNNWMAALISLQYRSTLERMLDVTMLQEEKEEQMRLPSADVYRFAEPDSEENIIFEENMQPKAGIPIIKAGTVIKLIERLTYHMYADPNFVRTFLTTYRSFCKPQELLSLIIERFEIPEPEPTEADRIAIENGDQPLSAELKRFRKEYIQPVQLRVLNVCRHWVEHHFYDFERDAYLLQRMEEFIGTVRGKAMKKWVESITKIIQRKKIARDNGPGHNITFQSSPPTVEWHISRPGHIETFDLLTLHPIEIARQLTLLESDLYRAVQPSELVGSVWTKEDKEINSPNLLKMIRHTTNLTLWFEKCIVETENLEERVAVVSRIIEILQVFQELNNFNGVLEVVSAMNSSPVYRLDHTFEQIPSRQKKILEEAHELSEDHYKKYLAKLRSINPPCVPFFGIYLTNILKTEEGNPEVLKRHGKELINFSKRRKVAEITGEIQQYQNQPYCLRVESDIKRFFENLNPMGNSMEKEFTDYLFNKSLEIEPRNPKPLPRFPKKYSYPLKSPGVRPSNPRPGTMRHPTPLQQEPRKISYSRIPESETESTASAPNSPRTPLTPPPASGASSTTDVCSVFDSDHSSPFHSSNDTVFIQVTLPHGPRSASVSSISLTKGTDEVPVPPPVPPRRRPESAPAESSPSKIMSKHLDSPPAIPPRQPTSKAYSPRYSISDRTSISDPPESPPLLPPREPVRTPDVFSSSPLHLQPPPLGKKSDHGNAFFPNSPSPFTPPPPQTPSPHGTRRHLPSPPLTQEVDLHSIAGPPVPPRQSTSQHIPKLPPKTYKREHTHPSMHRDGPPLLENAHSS
Summary of the method: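 Compound, then GTP and SOS, were added to buffered Ras preloaded with BODIPY-GDP, and the fluorescence change from labeled GDP being exchanged for GTP was followed over time. Rates came from single-exponential fits, and EC50 from a four-parameter fit of mean rate against compound concentration.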

[2] = tested on: H727 lung cancer cell lines, which contain a G12V K-Ras mutation; assay: Inhibition of cancer cell proliferation (CellTiter-Glo, 3 days); assay type: cell-based; conditions: Homo sapiens, NCI-H727, 72 h, H727 cells, 3 days at 37° C., normalized to DMSO control, read-out: Cell proliferation activity (H727 cancer cell line proliferation IC50)
Experimental: C. Inhibition of Cancer Cell Proliferation
Compounds of the present invention were measured for their ability to kill H727 lung cancer cell lines, which contain a G12V K-Ras mutation. Cell proliferation experiments were conducted in 96-well plates. Cells were plated at 1000 cells/well, incubated overnight, followed by treatment with a dose range of compound for 3 days at 37° C. Cell proliferation was assessed using a CellTiter-Glo assay (Promega) according to the manufacturer's protocol. Data were normalized to DMSO control. IC50 values were determined using a four-parameter dose-response (variable slope) equation. These assays are performed in a manner analogous to the assay disclosed in: Burns, M. C.; Sun, Q.; Daniels, R. N.; Camper, D. V.; Kennedy, J. P.; Phan, J.; Olejniczak, E. O.; Lee, T.; Waterson, A. G.; Rossanese, O. W.; Fesik, S. W. “Approach for targeting Ras with small molecules that activate SOS-mediated nucleotide exchange” Proc. Natl. Acad. Sci. 2014; 11(9): 3401-3406. PMCID: PMC3948241.

[3] = molecular target: T2, Son of Sevenless (SOS) (Homo sapiens, UniProt Q07889); assay: Binding to SOS, fluorescence polarization anisotropy (FPA) displacement of FITC-conjugated probe; conditions: binding affinity calculated from IC50 of FITC-probe displacement, read-out: Binding affinities (binding affinity to SOS)
T2 sequence (Q07889 564-1049 limits assumed): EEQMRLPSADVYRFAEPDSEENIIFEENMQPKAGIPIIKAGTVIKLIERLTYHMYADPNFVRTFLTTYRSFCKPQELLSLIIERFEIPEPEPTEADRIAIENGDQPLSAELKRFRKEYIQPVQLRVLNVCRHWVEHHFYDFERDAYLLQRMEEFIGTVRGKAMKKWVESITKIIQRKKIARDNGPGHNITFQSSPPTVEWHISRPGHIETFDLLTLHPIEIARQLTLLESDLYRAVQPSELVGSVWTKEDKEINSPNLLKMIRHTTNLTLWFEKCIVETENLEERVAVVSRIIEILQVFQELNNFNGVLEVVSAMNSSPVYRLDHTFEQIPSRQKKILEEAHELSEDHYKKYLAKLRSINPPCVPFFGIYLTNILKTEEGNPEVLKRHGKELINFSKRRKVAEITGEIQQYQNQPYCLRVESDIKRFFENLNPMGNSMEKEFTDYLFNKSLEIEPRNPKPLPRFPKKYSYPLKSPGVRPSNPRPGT
Summary of the method: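 FITC-labelled probe incubated with SOS in buffer; displacement by test compound across a dose range read as fluorescence anisotropy change. IC50 from four-parameter variable-slope fit, binding affinity calculated from IC50.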

Row | Compound | EC50 [1] | Ki [3] | IC50 [2]
1 | C[C@@H](Nc1nc(NCC2CCCCCC2)nc2ccccc12)C1CC1 [Example 5, (R)—N^2-(cycloheptylmethyl)-N^4-(1-cyclopropylethyl)quinazoline-2,4-diamine] | 5 to 30 µM | > 5 µM | 1 to 5 µM
2 | CC[C@@H](Nc1nc(Nc2ccc(F)c(Cl)c2)nc2c(C3=CCNCC3)cccc12)c1cccs1 [Example 100, (R)—N^2-(3-chloro-4-fluorophenyl)-8-(1,2,3,6-tetrahydropyridin-4-yl)-N^4-(1-(thiophen-2-yl)propyl)quinazoline-2,4-diamine] | 5 to 30 µM |  | < 1 µM
3 | C[C@@H](Nc1nc(Nc2ccc(F)c(Cl)c2)nc2ccccc12)C(C)(C)C [Example 40, (R)—N^2-(3-chloro-4-fluorophenyl)-N^4-(3,3-dimethylbutan-2-yl)quinazoline-2,4-diamine] | 1 to 5 µM | > 5 µM | 
4 | C[C@@H](Nc1nc(NCC2CCCC2)nc2ccccc12)C1CC1 [Example 3, (R)—N^2-(cyclopentylmethyl)-N^4-(1-cyclopropylethyl)quinazoline-2,4-diamine] | 1 to 5 µM | > 5 µM | 
5 | C[C@@H](Nc1nc(Nc2ccc(F)c(Cl)c2)nc2ccccc12)C1CC1 [Example 1, (R)—N^2-(3-chloro-4-fluorophenyl)-N^4-(1-cyclopropylethyl)quinazoline-2,4-diamine] | 5 to 30 µM |  | 1 to 5 µM
6 | C[C@@H](Nc1nc(NCC2CCCCC2)nc2c(CN)cccc12)C(C)(C)C [Example 86, (R)-8-(aminomethyl)-N^2-(cyclohexylmethyl)-N^4-(3,3-dimethylbutan-2-yl)quinazoline-2,4-diamine] | 5 to 30 µM | > 5 µM | 
7 | CC[C@@H](Nc1nc(Nc2ccc(F)c(Cl)c2)nc2c(CCN)cccc12)C1CC1 [Example 50, (R)-8-(2-aminoethyl)-N^2-(3-chloro-4-fluorophenyl)-N^4-(1-cyclopropylpropyl)quinazoline-2,4-diamine] | 1 to 5 µM |  | 1 to 5 µM
8 | Cc1cc(CNc2nc(N[C@H](C)C3CC3)c3ccccc3n2)ccc1F [Example 24, (R)—N^4-(1-cyclopropylethyl)-N^2-(4-fluoro-3-methylbenzyl)quinazoline-2,4-diamine] | 1 to 5 µM | > 5 µM | 
9 | C[C@@H](Nc1nc(Nc2cc(F)cc(F)c2)nc2ccc(CCN)cc12)C1CC1 [Example 109, (R)-6-(2-aminoethyl)-N^4-(1-cyclopropylethyl)-N^2-(3,5-difluorophenyl)quinazoline-2,4-diamine] | 1 to 5 µM |  | < 1 µM
10 | C[C@@H](Nc1nc(Cc2cc(F)cc(F)c2)nc2ccccc12)C1CC1 [Example 110, (R)—N-(1-cyclopropylethyl)-2-(3,5-difluorobenzyl)quinazolin-4-amine] | 5 to 30 µM |  | 5 to 20 µM

More lines, main results first:

Row | EC50 [1] | Ki [3] | Compound | IC50 [2]
11 | 5 to 30 µM | > 5 µM | CNCc1cccc2c(N[C@H](C)C3CC3)nc(Nc3ccc(F)c(Cl)c3)nc12 [Example 58, (R)—N^2-(3-chloro-4-fluorophenyl)-N^4-(1-cyclopropylethyl)-8-((methylamino)methyl)quinazoline-2,4-diamine] | 1 to 5 µM
12 | 5 to 30 µM | > 5 µM | C[C@@H](Nc1nc(NCC2CCCCCC2)nc2c(C3=CCNCC3)cccc12)C1CC1 [Example 103, (R)—N^2-(cycloheptylmethyl)-N^4-(1-cyclopropylethyl)-8-(1,2,3,6-tetrahydropyridin-4-yl)quinazoline-2,4-diamine] | 
13 | 5 to 30 µM | > 5 µM | Cc1cc(F)cc(Nc2nc(N[C@H](C)C(C)(C)C)c3cccc(CN)c3n2)c1 [Example 131, (R)-8-(aminomethyl)-N^4-(3,3-dimethylbutan-2-yl)-N^2-(3-fluoro-5-methylphenyl)quinazoline-2,4-diamine] | 
14 | 1 to 5 µM | 1 to 5 µM | Cc1cc(F)cc(Nc2nc(NC(C3CC3)C3CC3)c3cccc(C4=CCNCC4)c3n2)c1 [Example 108, N^4-(dicyclopropylmethyl)-N^2-(3-fluoro-5-methylphenyl)-8-(1,2,3,6-tetrahydropyridin-4-yl)quinazoline-2,4-diamine] | 
15 | > 30 µM | > 5 µM | C[C@@H](Nc1nc(Nc2ccc(F)c(Cl)c2)nc2c(NCCO)cccc12)C1CC1 [Example 54, (R)-2-((2-((3-chloro-4-fluorophenyl)amino)-4-((1-cyclopropylethyl)amino)quinazolin-8-yl)amino)ethan-1-ol] | 
16 | 1 to 5 µM | 1 to 5 µM | CC[C@@H](Nc1nc(Nc2cc(C)cc(F)c2)nc2c(CCN)cccc12)C1CC1 [Example 128, (R)-8-(2-aminoethyl)-N^4-(1-cyclopropylpropyl)-N^2-(3-fluoro-5-methylphenyl)quinazoline-2,4-diamine] | 
17 | 1 to 5 µM | 1 to 5 µM | Cc1cc(F)cc(Nc2nc(N[C@H](C)c3cccs3)c3cccc(C4=CCNCC4)c3n2)c1 [Example 89, (R)—N^2-(3-fluoro-5-methylphenyl)-8-(1,2,3,6-tetrahydropyridin-4-yl)-N^4-(1-(thiophen-2-yl)ethyl)quinazoline-2,4-diamine] | 
18 | > 30 µM | > 5 µM | C[C@@H](Nc1nc(NCCc2c[nH]cn2)nc2c(C3=CCNCC3)cccc12)C1CC1 [Example 63, (R)—N^2-(2-(1H-imidazol-4-yl)ethyl)-N^4-(1-cyclopropylethyl)-8-(1,2,3,6-tetrahydropyridin-4-yl)quinazoline-2,4-diamine] | 
19 | 1 to 5 µM | 1 to 5 µM | C[C@@H](Nc1nc(Nc2ccc(F)c(Cl)c2)nc2c(CC3CC(N)C3)cccc12)C1CC1 (stereo partly drawn) [Example 114, (R)-8-((3-aminocyclobutyl)methyl)-N^2-(3-chloro-4-fluorophenyl)-N^4-(1-cyclopropylethyl)quinazoline-2,4-diamine] | 
20 | < 1 µM | 1 to 5 µM | C[C@@H](Nc1nc(Nc2ccc(F)c(Cl)c2)nc2c(C3=CCNCC3)cccc12)C1CC1 [Example 62, (R)—N^2-(3-chloro-4-fluorophenyl)-N^4-(1-cyclopropylethyl)-8-(1,2,3,6-tetrahydropyridin-4-yl)quinazoline-2,4-diamine] | 
